Patent EP4786474A1, “CRYSTALLINE FORM OF QUINAZOLINE DERIVATIVE AND PREPARATION METHOD THEREFOR” (Jiangsu Hengrui Pharmaceuticals Co., Ltd., priority 2023, dated 2025)

How the values were obtained:
Format in all cases: physicochemical
[1] = Long-term/accelerated stability; conditions: for physical and chemical stability: long-term/accelerated conditions
Procedure: Samples of the crystal forms D, E, and H were left to stand under 25 °C/60% RH and 40 °C/75% RH conditions to investigate their stability: Table 30.

[2] = Influencing factor stability study; conditions: for physical and chemical stability: light exposure (4500 Lux), high temperature (40 °C and 60 °C), high humidity (RH 75% and RH 92.5%), 30 days
Procedure: Samples of the crystal forms D, E, and H were spread in open containers and left to stand under light exposure (4500 Lux), high temperature (40 °C and 60 °C), and high humidity (RH 75% and RH 92.5%) conditions for 1 month to investigate their stability.

[3] = DVS (dynamic vapor sorption) hygroscopicity testing
From the text: According to the description of hygroscopicity characteristics and the definition of hygroscopic weight gain in "General Rule 9103, Guidelines for Hygroscopicity Trials for Pharmaceuticals" in the Chinese Pharmacopoeia, Volume IV, 2015 Edition: • deliquescent: sufficient water is absorbed to form a liquid; • extremely hygroscopic: the hygroscopic weight gain is not less than 15%; • hygroscopic: the hygroscopic weight gain is less than 15% but not less than 2%; • slightly hygroscopic: the hygroscopic weight gain is less than 2% but not less than 0.2%; • nonhygroscopic or practically nonhygroscopic: the hygroscopic weight gain is less than 0.2%.
DVS refers to dynamic vapor sorption: The analysis was performed using SMS DVS Advantage; at 25 °C, the humidity was changed as follows: 50%-95%-0%-95%-50%, in steps of 10% (5% for the last step) (specific humidity ranges are shown in corresponding patterns, and those listed here were used in most cases); the criterion was dm/dt being not greater than 0.002%.

[4] = accelerated experimental conditions, 70% RH
[5] = normal storage conditions, 25 °C and 60% RH

## C=CC(=O)N1[C@@H]2CC[C@H]1C[C@@H](Oc1ccc3ncnc(Nc4ccc(Oc5ccn6ncnc6c5)c(C)c4F)c3c1)C2 [Crystal form D, 1-(endo-3-((4-((4-([1,2,4]Triazolo[1,5-a]pyridin-7-yloxy)-2-fluoro-3-methylphenyl)amino)quinazolin-6-yl)oxy)-8-azabicyclo[3.2.1]octan-8-yl)prop-2-en-1-one]
[1]; 25 °C/60% RH, 1 month
  Color and appearance: White powder
  Crystal form: No change
[1]; 25 °C/60% RH, 2 months
  Color and appearance: White powder
  Crystal form: No change
[1]; 25 °C/60% RH, 3 months
  Color and appearance: White powder
  Crystal form: No change
[1]; 25 °C/60% RH, 6 months
  Color and appearance: White powder
  Crystal form: No change
[1]; 25 °C/60% RH, 14 days
  Color and appearance: White powder
  Crystal form: No change
[1]; 40 °C/75% RH, 1 month
  Color and appearance: White powder
  Crystal form: No change
[1]; 40 °C/75% RH, 2 months
  Color and appearance: White powder
  Crystal form: No change
[1]; 40 °C/75% RH, 3 months
  Color and appearance: White powder
  Crystal form: No change
[1]; 40 °C/75% RH, 6 months
  Color and appearance: White powder
  Crystal form: No change
[1]; 40 °C/75% RH, 14 days
  Color and appearance: White powder
  Crystal form: No change
[1]; Initial, 0
  Color and appearance: White powder
  Crystal form: Crystal form D
[1]
  physical and chemical stability: Conclusion: Under long-term/accelerated conditions, the crystal form D exhibited good physical and chemical stability.
[2]; 40 °C, 1 month
  Color and appearance: White powder
  Crystal form: No change
  Purity (%): 99.0%
[2]; 40 °C, 7 days
  Color and appearance: White powder
  Crystal form: No change
[2]; 40 °C, 13 days
  Color and appearance: White powder
  Crystal form: No change
  Purity (%): 99.4%
[2]; 60 °C, 1 month
  Color and appearance: White powder
  Crystal form: No change
  Purity (%): 99.2%
[2]; 60 °C, 7 days
  Color and appearance: White powder
  Crystal form: No change
[2]; 60 °C, 13 days
  Color and appearance: White powder
  Crystal form: No change
  Purity (%): 99.4%
[2]; 75% RH, 1 month
  Color and appearance: White powder
  Crystal form: No change
[2]; 75% RH, 13 days
  Color and appearance: White powder
  Crystal form: No change
[2]; 92.5% RH, 1 month
  Color and appearance: White powder
  Crystal form: No change
[2]; 92.5% RH, 13 days
  Color and appearance: White powder
  Crystal form: No change
[2]; 4500 Lux, 1 month
  Color and appearance: White powder
  Crystal form: No change
  Purity (%): 99.2%
[2]; 4500 Lux, 7 days
  Color and appearance: White powder
  Crystal form: No change
  Purity (%): 99.4%
[2]; 4500 Lux, 13 days
  Color and appearance: White powder
  Crystal form: No change
  Purity (%): 99.3%
[2]; Initial, 0
  Color and appearance: White powder
  Crystal form: Crystal form D
[2]
  physical and chemical stability: Conclusion: Standing under light exposure (4500 Lux), high temperature (40 °C and 60 °C), and high humidity (RH 75% and RH 92.5%) conditions for 30 days, the crystal form D exhibited good physical and chemical stability.
[3]; [4]
  hygroscopic weight gain: about 3.23%
[3]; after DVS testing
  crystal form re-identified after DVS testing: the crystal form did not change
[3]; extreme conditions, 90% RH
  hygroscopic weight gain: about 3.52%
[3]; [5]
  hygroscopic weight gain: about 3.07%

## C=CC(=O)N1[C@@H]2CC[C@H]1C[C@@H](Oc1ccc3ncnc(Nc4ccc(Oc5ccn6ncnc6c5)c(C)c4F)c3c1)C2 [Crystal form J, 1-(endo-3-((4-((4-([1,2,4]Triazolo[1,5-a]pyridin-7-yloxy)-2-fluoro-3-methylphenyl)amino)quinazolin-6-yl)oxy)-8-azabicyclo[3.2.1]octan-8-yl)prop-2-en-1-one]
[3]; [4]
  hygroscopic weight gain: about 2.64%
[3]; extreme conditions, 90% RH
  hygroscopic weight gain: about 8.10%
[3]; [5]
  hygroscopic weight gain: about 2.44%

## C=CC(=O)N1[C@@H]2CC[C@H]1C[C@@H](Oc1ccc3ncnc(Nc4ccc(Oc5ccn6ncnc6c5)c(C)c4F)c3c1)C2 [Crystal form H, 1-(endo-3-((4-((4-([1,2,4]Triazolo[1,5-a]pyridin-7-yloxy)-2-fluoro-3-methylphenyl)amino)quinazolin-6-yl)oxy)-8-azabicyclo[3.2.1]octan-8-yl)prop-2-en-1-one]
[1]; 25 °C/60% RH, 1 month
  Color and appearance: White powder
  Crystal form: No change
[1]; 25 °C/60% RH, 2 months
  Color and appearance: White powder
  Crystal form: No change
[1]; 25 °C/60% RH, 3 months
  Color and appearance: White powder
  Crystal form: No change
[1]; 25 °C/60% RH, 6 months
  Color and appearance: White powder
  Crystal form: No change
[1]; 25 °C/60% RH, 14 days
  Color and appearance: White powder
  Crystal form: No change
[1]; 40 °C/75% RH, 1 month
  Color and appearance: White powder
  Crystal form: No change
[1]; 40 °C/75% RH, 2 months
  Color and appearance: White powder
  Crystal form: No change
[1]; 40 °C/75% RH, 3 months
  Color and appearance: White powder
  Crystal form: No change
[1]; 40 °C/75% RH, 6 months
  Color and appearance: White powder
  Crystal form: No change
[1]; 40 °C/75% RH, 14 days
  Color and appearance: White powder
  Crystal form: No change
[1]; Initial, 0
  Color and appearance: White powder
  Crystal form: Crystal form H
  Purity (%): 99.8%
[1]
  physical and chemical stability: Conclusion: Under long-term/accelerated conditions, the crystal form H exhibited good physical and chemical stability.
[2]; 40 °C, 1 month
  Color and appearance: White powder
  Crystal form: No change
  Purity (%): 99.4%
[2]; 40 °C, 7 days
  Color and appearance: White powder
  Crystal form: No change
[2]; 40 °C, 14 days
  Color and appearance: White powder
  Crystal form: No change
[2]; 60 °C, 1 month
  Color and appearance: White powder
  Crystal form: No change
  Purity (%): 99.4%
[2]; 60 °C, 7 days
  Color and appearance: White powder
  Crystal form: No change
[2]; 60 °C, 14 days
  Color and appearance: White powder
  Crystal form: No change
[2]; 75% RH, 1 month
  Color and appearance: White powder
  Crystal form: No change
[2]; 75% RH, 7 days
  Color and appearance: White powder
  Crystal form: No change
[2]; 75% RH, 14 days
  Color and appearance: White powder
  Crystal form: No change
[2]; 92.5% RH, 1 month
  Color and appearance: White powder
  Crystal form: No change
[2]; 92.5% RH, 7 days
  Color and appearance: White powder
  Crystal form: No change
[2]; 92.5% RH, 14 days
  Color and appearance: White powder
  Crystal form: No change
[2]; 4500 Lux, 1 month
  Color and appearance: White powder
  Crystal form: No change
[2]; 4500 Lux, 7 days
  Color and appearance: White powder
  Crystal form: No change
[2]; 4500 Lux, 14 days
  Color and appearance: White powder
  Crystal form: No change
[2]; Initial, 0
  Color and appearance: White powder
  Crystal form: Crystal form H
  Purity (%): 99.8%
[2]
  physical and chemical stability: Conclusion: Standing under light exposure (4500 Lux), high temperature (40 °C and 60 °C), and high humidity (RH 75% and RH 92.5%) conditions for 30 days, the crystal form H exhibited good physical and chemical stability.
[3]; [4]
  hygroscopic weight gain: about 0.12%
[3]; extreme conditions, 90% RH
  hygroscopic weight gain: about 0.22%
[3]; [5]
  hygroscopic weight gain: about 0.09%
